Source: US11339130B1 (Blade Therapeutics, Inc., priority 2016, dated 2022)

What was measured:
[1] = test system: Calpain activity in SH-SY5Y cells (SBDP-150); assay: SH-SY5Y Spectrin western blot assay (SBDP-150 breakdown product, A23187-induced); assay type: cell-based; conditions: Homo sapiens; SH-SY5Y cells, A23187-induced SBDP-150, western blot; read-out: SH-SY5Y Spectrin IC50
Human Calpain 9/NS1 = target: T1, Human Calpain 9/NS1 (Homo sapiens, UniProt O14815); assay: Calpain inhibition continuous fluorescence (FRET) assay, Human Calpain 9/NS1; assay type: biochemical; conditions: read-out: Human Calpain 9/NS1 IC50
T1 sequence (O14815 1-690): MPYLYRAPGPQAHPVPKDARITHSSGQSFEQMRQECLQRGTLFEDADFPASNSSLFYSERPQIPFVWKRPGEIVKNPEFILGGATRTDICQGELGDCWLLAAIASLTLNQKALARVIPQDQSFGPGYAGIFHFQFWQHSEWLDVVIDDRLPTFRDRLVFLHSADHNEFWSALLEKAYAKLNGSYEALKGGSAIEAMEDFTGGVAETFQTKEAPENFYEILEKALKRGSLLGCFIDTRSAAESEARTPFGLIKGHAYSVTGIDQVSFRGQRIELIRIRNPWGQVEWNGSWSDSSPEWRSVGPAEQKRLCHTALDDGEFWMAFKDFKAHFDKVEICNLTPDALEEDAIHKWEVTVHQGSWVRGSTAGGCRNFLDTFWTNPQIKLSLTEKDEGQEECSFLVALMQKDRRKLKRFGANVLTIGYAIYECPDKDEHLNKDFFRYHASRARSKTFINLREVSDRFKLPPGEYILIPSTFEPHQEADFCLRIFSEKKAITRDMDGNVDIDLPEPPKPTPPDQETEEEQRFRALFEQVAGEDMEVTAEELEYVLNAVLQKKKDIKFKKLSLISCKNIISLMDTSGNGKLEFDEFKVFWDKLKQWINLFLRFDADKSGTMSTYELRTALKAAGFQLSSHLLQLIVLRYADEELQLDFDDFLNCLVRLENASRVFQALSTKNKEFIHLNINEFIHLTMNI
T1 sequence (P04632 1-268 partner): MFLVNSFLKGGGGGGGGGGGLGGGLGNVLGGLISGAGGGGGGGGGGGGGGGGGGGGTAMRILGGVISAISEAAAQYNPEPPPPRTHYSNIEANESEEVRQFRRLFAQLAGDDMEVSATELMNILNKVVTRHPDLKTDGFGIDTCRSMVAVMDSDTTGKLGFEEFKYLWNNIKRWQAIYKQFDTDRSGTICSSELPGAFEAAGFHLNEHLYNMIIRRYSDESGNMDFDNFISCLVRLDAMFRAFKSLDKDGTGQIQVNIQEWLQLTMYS
Method in brief: (§1)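 Calpain activity is measured kinetically with a quenched FRET peptide in 50 mM Tris pH 7.5, 100 mM NaCl, 1 mM DTT, with CaCl2 triggering activation. Rates over 1-5 min are plotted against log inhibitor to obtain IC50 by 4-parameter logistic fitting.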

Human Calpain 2/NS1 = target: T2, Human Calpain 2/NS1 (Homo sapiens, UniProt P17655); assay: Calpain inhibition continuous fluorescence (FRET) assay, Human Calpain 2/NS1; assay type: biochemical; conditions: read-out: Human Calpain 2/NS1 IC50
T2 sequence (P17655 1-700): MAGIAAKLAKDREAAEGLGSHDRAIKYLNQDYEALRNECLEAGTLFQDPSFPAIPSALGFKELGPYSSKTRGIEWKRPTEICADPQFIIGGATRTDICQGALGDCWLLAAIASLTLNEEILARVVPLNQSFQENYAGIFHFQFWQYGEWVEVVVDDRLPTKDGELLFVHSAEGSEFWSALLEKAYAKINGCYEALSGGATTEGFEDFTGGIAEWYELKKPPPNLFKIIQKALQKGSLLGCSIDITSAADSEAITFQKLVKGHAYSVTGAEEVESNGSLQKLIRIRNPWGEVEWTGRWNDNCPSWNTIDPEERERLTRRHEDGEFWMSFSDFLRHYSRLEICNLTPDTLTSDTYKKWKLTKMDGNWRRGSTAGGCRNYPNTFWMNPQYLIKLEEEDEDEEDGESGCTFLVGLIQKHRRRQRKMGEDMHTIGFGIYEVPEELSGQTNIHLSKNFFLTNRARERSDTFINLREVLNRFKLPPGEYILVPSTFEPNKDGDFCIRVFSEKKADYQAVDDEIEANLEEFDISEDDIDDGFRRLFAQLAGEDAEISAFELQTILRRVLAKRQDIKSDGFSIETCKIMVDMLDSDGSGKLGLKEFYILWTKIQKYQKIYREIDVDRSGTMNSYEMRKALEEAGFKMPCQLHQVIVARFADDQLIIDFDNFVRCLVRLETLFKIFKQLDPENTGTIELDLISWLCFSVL
T2 sequence (P04632 1-268 partner): T1 sequence (P04632 1-268 partner)
Method in brief: as §1

Human Calpain 1/NS1 = target: T3, Human Calpain 1/NS1 (Homo sapiens, UniProt P07384); assay: Calpain inhibition continuous fluorescence (FRET) assay, Human Calpain 1/NS1; assay type: biochemical; conditions: read-out: Human Calpain 1/NS1 IC50
T3 sequence (P07384 1-714): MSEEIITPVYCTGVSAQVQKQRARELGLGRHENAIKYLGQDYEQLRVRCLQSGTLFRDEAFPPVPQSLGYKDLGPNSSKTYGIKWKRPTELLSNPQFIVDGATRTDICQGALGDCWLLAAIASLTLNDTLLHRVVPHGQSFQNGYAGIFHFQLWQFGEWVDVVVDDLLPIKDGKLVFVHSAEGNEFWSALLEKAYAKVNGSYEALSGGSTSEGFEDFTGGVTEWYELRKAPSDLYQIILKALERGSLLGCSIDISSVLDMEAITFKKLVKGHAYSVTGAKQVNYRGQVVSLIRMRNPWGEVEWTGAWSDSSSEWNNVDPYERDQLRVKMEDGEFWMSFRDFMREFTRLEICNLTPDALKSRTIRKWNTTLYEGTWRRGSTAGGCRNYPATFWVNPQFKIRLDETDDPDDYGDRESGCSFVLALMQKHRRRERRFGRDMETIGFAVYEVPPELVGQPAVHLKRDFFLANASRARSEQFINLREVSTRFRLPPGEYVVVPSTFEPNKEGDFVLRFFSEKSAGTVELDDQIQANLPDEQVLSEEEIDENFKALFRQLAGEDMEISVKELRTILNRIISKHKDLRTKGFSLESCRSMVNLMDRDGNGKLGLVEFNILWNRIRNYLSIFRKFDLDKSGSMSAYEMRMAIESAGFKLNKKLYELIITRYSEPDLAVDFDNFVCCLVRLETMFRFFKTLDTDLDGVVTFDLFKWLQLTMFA
T3 sequence (P04632 1-268 partner): T1 sequence (P04632 1-268 partner)
Method in brief: as §1

[2] = test system: Calpain activity in SH-SY5Y cells; assay: SH-SY5Y + AMC fluorescence assay (Suc-LLVY-AMC substrate); assay type: cell-based; conditions: read-out: SH-SY5Y + AMC IC50

Structure (SMILES)	IC50 [1] [µM]	IC50 (Human Calpain 9/NS1) [µM]	IC50 (Human Calpain 2/NS1) [µM]	IC50 (Human Calpain 1/NS1) [µM]	IC50 [2] [µM]
Cn1cc(C(=O)NC(Cc2ccccc2)C(=O)C(N)=O)c(-c2c(F)cccc2F)n1 (stereo not drawn) [Compound 486, N-(4-amino-3,4-dioxo-1-phenylbutan-2-yl)-3-(2,6-difluorophenyl)-1-methyl-1H-pyrazole-4-carboxamide]	10 to 25	< 3	< 3	< 3	< 10
NC(=O)C(=O)C(Cc1ccccc1)NC(=O)c1cn(C(F)(F)F)nc1-c1ccccc1 (stereo not drawn) [Compound 489, N-(4-amino-3,4-dioxo-1-phenylbutan-2-yl)-3-phenyl-1-(trifluoromethyl)-1H-pyrazole-4-carboxamide]	10 to 25	< 3	< 3	< 3	10 to 25
Cc1noc(-c2ccccc2)c1C(=O)N[C@@H](Cc1ccc(O)cc1)C(=O)C(N)=O [Compound 492, (S)—N-(4-amino-1-(4-hydroxyphenyl)-3,4-dioxobutan-2-yl)-3-methyl-5-phenylisoxazole-4-carboxamide]	10 to 25	< 3	< 3	< 3	> 25
Cc1cc(C(=O)NC(Cc2ccccc2)C(=O)C(N)=O)n(-c2ccc(CNC(=O)c3ccc(F)cc3)cc2)n1 (stereo not drawn) [Compound 496, N-(4-amino-3,4-dioxo-1-phenylbutan-2-yl)-1-(4-((4-fluorobenzamido)methyl)phenyl)-3-methyl-1H-pyrazole-5-carboxamide]	10 to 25	< 3	< 3	< 3	> 25
NC(=O)C(=O)C(Cc1ccccc1)NC(=O)c1cc(Br)nn1-c1ncccn1 (stereo not drawn) [Compound 497, N-(4-amino-3,4-dioxo-1-phenylbutan-2-yl)-3-bromo-1-(pyrimidin-2-yl)-1H-pyrazole-5-carb oxamide]	10 to 25	< 3	< 3	< 3	< 10
Cc1ccc(-c2nn(C)cc2C(=O)NC(Cc2ccccc2)C(=O)C(N)=O)o1 (stereo not drawn) [Compound 498, N-(4-amino-3,4-dioxo-1-phenylbutan-2-yl)-1-methyl-3-(5-methylfuran-2-yl)-1H-pyrazole-4-carboxamide]	> 25	< 3	< 3	< 3	10 to 25
Cc1cc(-c2nn(C)cc2C(=O)NC(Cc2ccccc2)C(=O)C(N)=O)c(C)s1 (stereo not drawn) [Compound 499, N-(4-amino-3,4-dioxo-1-phenylbutan-2-yl)-3-(2,5-dimethylthiophen-3-yl)-1-methyl-1H-pyrazole-4-carboxamide]	10 to 25	< 3	< 3	< 3	< 10
Cn1cc(C(=O)NC(Cc2ccccc2)C(=O)C(N)=O)c(-c2ccco2)n1 (stereo not drawn) [Compound 500, N-(4-amino-3,4-dioxo-1-phenylbutan-2-yl)-3-(furan-2-yl)-1-methyl-1H-pyrazole-4-carboxamide]	10 to 25	< 3	< 3	< 3	< 10
Cn1cc(C(=O)NC(Cc2ccccc2)C(=O)C(N)=O)c(-c2ccsc2Cl)n1 (stereo not drawn) [Compound 501, N-(4-amino-3,4-dioxo-1-phenylbutan-2-yl)-3-(2-chlorothiophen-3-yl)-1-methyl-1H-pyrazole-4-carboxamide]	10 to 25	< 3	< 3	< 3	< 10
Cn1cc(C(=O)NC(Cc2ccccc2)C(=O)C(N)=O)c(-c2ccoc2)n1 (stereo not drawn) [Compound 502, N-(4-amino-3,4-dioxo-1-phenylbutan-2-yl)-3-(furan-3-yl)-1-methyl-1H-pyrazole-4-carboxamide]	10 to 25	< 3	< 3	< 3	< 10
Cc1csc(-c2nn(C)cc2C(=O)NC(Cc2ccccc2)C(=O)C(N)=O)c1 (stereo not drawn) [Compound 504, N-(4-amino-3,4-dioxo-1-phenylbutan-2-yl)-1-methyl-3-(4-methylthiophen-2-yl)-1H-pyrazole-4-carboxamide]	> 25	< 3	< 3	< 3	> 25
COc1ccc(F)c(-c2nn(C)cc2C(=O)NC(Cc2ccccc2)C(=O)C(N)=O)c1 (stereo not drawn) [Compound 507, N-(4-amino-3,4-dioxo-1-phenylbutan-2-yl)-3-(2-fluoro-5-methoxyphenyl)-1-methyl-1H-pyrazole-4-carboxamide]	10 to 25	< 3	< 3	< 3	< 10
Cn1cc(C(=O)NC(Cc2ccccc2)C(=O)C(N)=O)c(-c2cccc(C(F)F)c2)n1 (stereo not drawn) [Compound 508, N-(4-amino-3,4-dioxo-1-phenylbutan-2-yl)-3-(3-(difluoromethyl)phenyl)-1-methyl-1H-pyrazole-4-carboxamide]	< 10	< 3	< 3	< 3	< 10
COc1cccc(-c2nn(C)cc2C(=O)NC(Cc2ccccc2)C(=O)C(N)=O)c1F (stereo not drawn) [Compound 509, N-(4-amino-3,4-dioxo-1-phenylbutan-2-yl)-3-(2-fluoro-3-methoxyphenyl)-1-methyl-1H-pyrazole-4-carboxamide]	10 to 25	< 3	< 3	< 3	10 to 25
Cn1cc(C(=O)NC(Cc2ccccc2)C(=O)C(N)=O)c(-c2cccc3c2OC(F)(F)O3)n1 (stereo not drawn) [Compound 510, N-(4-amino-3,4-dioxo-1-phenylbutan-2-yl)-3-(2,2-difluorobenzo[d][1,3]dioxol-4-yl)-1-methyl-1H-pyrazole-4-carboxamide]	10 to 25	< 3	< 3	< 3	10 to 25
